Entries after “also recorded” stand apart in the source; their conditions may differ.

The subject of one series is human HeLa cells. Kind of series: Mammalian cytotoxicity, MTS viability. Format: cell-based. Here is the method: (§1) Cytotoxicity of PSAC inhibitors was measured with human HeLa cells (ATCC # CLL-2) in 96-well plates at 4000 cells/well. Cultures were incubated with each inhibitor at 37° C. for 72 h in Minimal Essential Medium (Gibco/Invitrogen, Carlsbad, Calif.) supplemented with 10% fetal calf serum. Cell viability was quantified using the vital stain MTS [3-(4,5-dimethylthiazol-2-yl)-5-(3-carboxymethonyphenol)-2-(4-sulfophenyl)-2H-tetrazolium, inner salt], as described (Marshall et al., Growth Regul., 5: 69-84 (1995)). The reported CC50 value is the concentration of an inhibitor that reduces conversion of MTS to formazan by 50%.

Series [1] is described as follows: Mammalian cytotoxicity, MTS viability. Format: cell-based, human. To be noted: human, HeLa cells; 72 h, MTS; read-out: HeLa cell CC50. Here is the method:
as §1

Series [2] relates to P. falciparum. Briefly: microbe, parasite or virus in culture. Format: cell-based. To be noted: for IC50: Plasmodium falciparum, 72 h; for IC50 ratio: RPMI growth IC50 / PLM growth IC50.
Series [3] relates to PSAC. Briefly: Transport inhibition assay, osmotic lysis of infected cells in sorbitol (Table 5). Format: cell-based, P. falciparum.
The test system of series [4] is PSAC. Kind of series: K0.5 for PSAC block, light-scattering osmotic lysis assay in sorbitol (Example 1). The conditions noted are these: for IC50: read-out: K0.5 for PSAC block, concentration producing 50% block of PSAC-mediated solute uptake; for K0.5 for PSAC block: concentration producing 50% block of PSAC-mediated solute uptake. Format: cell-based, P. falciparum. The text has this:
The chemical inhibitors included:
In this assay, increases in transmittance (% T, measured at 700 nm) correlated directly to lysis of infected RBCs and were plotted in arbitrary units. Uninfected RBCs lacked PSAC activity and had undetectably low sorbitol permeability.

In series [5] the test system is P. falciparum. Briefly: In vitro parasite killing, SYBR Green I fluorescence assay in RPMI 1640 or PLM (Example 1). Format: cell-based. The conditions noted are these: for IC50: Plasmodium falciparum, 72 h; for Ratio (RPMI/PLM): ratio of IC50 RPMI/PLM. The method, then:
In vitro parasite killing by PSAC inhibitors was quantified using a SYBR Green I-based fluorescence assay for parasite nucleic acid in 96-well format.
Cultures were maintained for 3 days at 37° C. in 5% 02, 5% CO2 without media change. After this incubation, Sybr Green I was added in 20 mM Tris, 10 mM EDTA, 0.016% saponin, 1.6% triton X100.

The mark [6] stands for this setting: 37° C., read-out: Transport inhibition K0.5.
Setting [7] is: PSAC-limiting medium (PLM), 3 days, read-out: PLM IC50.
Where [8] appears, read: RPMI 1640 standard media, 3 days, read-out: RPMI IC50.

With `O=C1Nc2cc(C(=O)N3CCN(c4ccccc4)CC3)ccc2Sc2ccccc21` [(3) (TP-52)], the “specificity (HeLa CC50/parasite PLM IC50)” value in the series on human HeLa cells is reported as >530. Besides, the 50% cytotoxic concentration (CC50) at 72 h in series [1] was > 100000 nM. Besides, the IC50 was found to be 190 nM in the series with P. falciparum [2] (read-out: PLM growth IC50), 7300 nM in the series on P. falciparum [2] (read-out: RPMI growth IC50) and 25 nM with PSAC [3] (setting [6]). The IC50 ratio with P. falciparum [2] is given as 38.

`CCCCN(CC)C(=O)c1cc2cc3ccc(C)cc3nc2o1` [(24)]: in the series on human HeLa cells, the “specificity (HeLa CC50/parasite PLM IC50)” value amounted to 110. Further, the CC50 at 72 h in series [1] is 30000 nM. Besides, the IC50 in the series on P. falciparum [2] (read-out: PLM growth IC50) came out at 270 nM; with P. falciparum [2] (read-out: RPMI growth IC50) it was 23000 nM; in the series with PSAC [3] (setting [6]), 87 nM. Moreover, the IC50 ratio with P. falciparum [2] is reported as 114.

Regarding `COc1ccc2cc3cc(C(=O)N(C)C4CCCCC4)oc3nc2c1` [(25)], the IC50 in the series with P. falciparum [2] (read-out: PLM growth IC50) came out at 170 nM; in the series with P. falciparum [2] (read-out: RPMI growth IC50), 15000 nM; in the series with PSAC [3] (setting [6]) it was 33 nM. Further, the IC50 ratio in the series on P. falciparum [2] turned out to be 86.

With `CCN(Cc1ccccc1)C(=O)c1ccc2c(c1)NC(=O)c1ccccc1S2` [(31)], the “specificity (HeLa CC50/parasite PLM IC50)” value in the series with human HeLa cells is listed as >240. Further, the 50% cytotoxic concentration (CC50) at 72 h in series [1] was > 100000 nM. Further, the IC50 in the series with P. falciparum [2] (read-out: PLM growth IC50) was 410 nM; with P. falciparum [2] (read-out: RPMI growth IC50), 4700 nM; in the series with PSAC [3] (setting [6]) it was 84 nM. Further, in the series on P. falciparum [2], the IC50 ratio worked out at 15.

As to `COc1ccc(NC(=O)c2cc3cc4ccc(C)cc4nc3o2)cc1` [(280)], in the series with human HeLa cells, the “specificity (HeLa CC50/parasite PLM IC50)” value is reported as >430. Also, in series [1], the CC50 at 72 h is > 100000 nM. In addition, the IC50 with P. falciparum [2] (read-out: PLM growth IC50) was found to be 230 nM; in the series on P. falciparum [2] (read-out: RPMI growth IC50), 18000 nM; in the series on PSAC [3] (read-out: Transport inhibition K0.5, 37° C.), 6 nM. The IC50 ratio with P. falciparum [2] is recorded as 270.

As to `Cc1ccc(C)c(N2CCN(S(=O)(=O)c3ccc(-c4ccc(=O)[nH]n4)s3)CC2)c1` [Compound of formula (1a)], the IC50 in the series with PSAC [4] was found to be 3 nM; in the series with P. falciparum [5] (setting [7]), 2.3 nM; in the series with P. falciparum [5] (setting [8]) it was 1500 nM. The “Ratio (RPMI/PLM)” value in the series with P. falciparum [5] is reported as 800.

Take `CCc1nn2c(=O)cc(CSc3nc4ccc(NC(=O)c5cccs5)cc4s3)nc2s1` [Compound of formula (2a)]: the IC50 in the series on PSAC [4] is 10 nM; in the series with P. falciparum [5] (setting [7]), 300 nM; in the series on P. falciparum [5] (setting [8]), > 30000 nM. In the series with P. falciparum [5], the “Ratio (RPMI/PLM)” value was >100.

For the compound `CC1=Nc2ccc(C)cc2C1/C=C1/C(=N)N2N=C(S(=O)(=O)CC(C)C)SC2=NC1=O` (centres unmarked) [Cpd 50], the “specificity (HeLa CC50/parasite PLM IC50)” value in the series with human HeLa cells is given as >50. Besides, the CC50 at 72 h in series [1] is > 100000 nM. Besides, the values for the IC50 with P. falciparum [2] (read-out: PLM growth IC50), in the series on P. falciparum [2] (read-out: RPMI growth IC50) and in the series on PSAC [3] (setting [6]) were 2000 nM, > 30000 nM and 81 nM, respectively. The IC50 ratio in the series with P. falciparum [2] is reported as >15.

With `O=C1N=C(N2CCCC2)S/C1=C/c1cccc(Cl)c1` [Cpd 80], the IC50 was determined as 170 nM in the series with P. falciparum [2] (read-out: PLM growth IC50), 12500 nM in the series on P. falciparum [2] (read-out: RPMI growth IC50) and 44 nM in the series with PSAC [3] (setting [6]). Besides, the IC50 ratio in the series on P. falciparum [2] was 130.

Take `Cc1ccc(C)c(N2CCN(S(=O)(=O)c3ccc(-c4ccc(=O)[nH]n4)s3)CC2)c1` [ISG-21]: the “specificity (HeLa CC50/parasite PLM IC50)” value in the series with human HeLa cells was 43,000. The 50% cytotoxic concentration (CC50) at 72 h in series [1] was found to be 86000 nM. Also, the IC50 is 2 nM in the series with P. falciparum [2] (read-out: PLM growth IC50) and 2.6 nM with PSAC [3] (setting [6]). For the same compound, the IC50 ratio in the series with P. falciparum [2] worked out at 800.

As for `C[C@@H]1CC[C@H]2[C@@H](C)C(=O)O[C@@H]3O[C@@]4(C)CC[C@@H]1[C@]32OO4` [artemisinin], the “K0.5 for PSAC block” value in the series with PSAC [4] was “did not inhibit PSAC activity”; in the series with PSAC [4] (listed as Artemisinin) it was “inactive”. Also, the IC50 ratio in the series with P. falciparum [2] is recorded as 0.66. For the same compound, the IC50 came to 26 nM in the series on P. falciparum [5] (setting [7]) and 18 nM with P. falciparum [5] (setting [8]). In addition, the “Ratio (RPMI/PLM)” value with P. falciparum [5] is on record as 0.66. Besides, the “Transport inhibition K0.5” value with PSAC [3] (37° C.) is “do not inhibit PSAC-mediated solute uptake; also recorded: inactive”.

For the compound `CCN(CC)CCCC(C)Nc1ccnc2cc(Cl)ccc12` (centres unmarked) [chloroquine, reference compound], the “K0.5 for PSAC block” value in the series with PSAC [4] was “did not inhibit PSAC activity”. For the same compound, the IC50 with P. falciparum [2] (read-out: PLM growth IC50) came to 340 nM; in the series on P. falciparum [2] (read-out: RPMI growth IC50), 220 nM; in the series with P. falciparum [5] (read-out: PLM IC50), 340 nM; with P. falciparum [5] (read-out: RPMI IC50), 220 nM. Besides, in the series on PSAC [3] (37° C.), the “Transport inhibition K0.5” value is “do not inhibit PSAC-mediated solute uptake; also recorded: inactive”.

Consider `O=C1CN(/N=C/c2ccc(-c3ccc([N+](=O)[O-])cc3)o2)C(=O)N1` [dantrolene, reference compound], for which the IC50 in the series on P. falciparum [2] (read-out: PLM growth IC50) came out at 3800 nM; in the series with P. falciparum [2] (read-out: RPMI growth IC50), 42000 nM; with PSAC [3] (setting [6]), 1200 nM. The IC50 ratio in the series on P. falciparum [2] is 18.

On to `NS(=O)(=O)c1cc(C(=O)O)c(NCc2ccco2)cc1Cl` [furosemide, reference compound], for which the IC50 in the series with P. falciparum [2] (read-out: PLM growth IC50) is 21000 nM; in the series with P. falciparum [2] (read-out: RPMI growth IC50), > 200000 nM.

Consider `OC(c1cc(C(F)(F)F)nc2c(C(F)(F)F)cccc12)C1CCCCN1` (centres unmarked) [mefloquine], for which the figures for the “K0.5 for PSAC block” value with PSAC [4] and with PSAC [4] (listed as Mefloquine) were “did not inhibit PSAC activity” and “inactive”, respectively. In the series on P. falciparum [2], the IC50 ratio worked out at 0.66. For the same compound, the IC50 in the series with P. falciparum [5] (setting [7]) worked out at 33 nM; in the series on P. falciparum [5] (setting [8]) it was 22 nM. Also, the “Ratio (RPMI/PLM)” value in the series on P. falciparum [5] is given as 0.66. For the same compound, in the series on PSAC [3] (37° C.), the “Transport inhibition K0.5” value was “do not inhibit PSAC-mediated solute uptake; also recorded: inactive”.
